Test results published in ChEMBL document CHEMBL1138332, “Synthesis of natural product-inspired inhibitors of Mycobacterium tuberculosis mycothiol-associated enzymes: the first inhibitors of GlcNAc-Ins deacetylase” (J Med Chem, 2007).

What was measured:
[1] = molecular target: T1, 1D-myo-inositol 2-acetamido-2-deoxy-alpha-D-glucopyranoside deacetylase (Mycobacterium tuberculosis, UniProt P9WJN3); assay: Inhibition of Mycobacterium tuberculosis MshB by fluorescence-detected HPLC assay
T1 sequence (P9WJN3 whole entry): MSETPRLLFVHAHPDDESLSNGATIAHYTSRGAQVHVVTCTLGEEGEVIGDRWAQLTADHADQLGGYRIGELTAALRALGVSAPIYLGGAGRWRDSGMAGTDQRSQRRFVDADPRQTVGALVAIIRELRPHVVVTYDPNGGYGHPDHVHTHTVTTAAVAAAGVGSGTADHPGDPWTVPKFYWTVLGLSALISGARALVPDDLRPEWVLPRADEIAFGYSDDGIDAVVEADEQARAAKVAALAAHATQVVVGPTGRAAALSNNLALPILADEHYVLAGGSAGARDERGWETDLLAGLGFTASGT

[2] = molecular target: T2, Mycothiol S-conjugate amidase (Mycobacterium tuberculosis, UniProt P9WJN1); assay: Inhibition of Mycobacterium tuberculosis MCA by fluorescence-detected HPLC assay
T2 sequence (P9WJN1 whole entry): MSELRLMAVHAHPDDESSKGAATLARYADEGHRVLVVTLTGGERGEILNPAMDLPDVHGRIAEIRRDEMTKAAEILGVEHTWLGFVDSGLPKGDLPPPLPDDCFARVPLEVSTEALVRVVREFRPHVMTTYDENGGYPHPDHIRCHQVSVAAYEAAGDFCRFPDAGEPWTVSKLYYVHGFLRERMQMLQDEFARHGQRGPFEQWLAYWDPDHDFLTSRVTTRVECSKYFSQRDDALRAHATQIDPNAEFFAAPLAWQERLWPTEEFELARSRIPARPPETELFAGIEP

Row | Structure (SMILES) | IC50 [1] [µM] | IC50 [2] [µM]
1 | O=C(N[C@H]1[C@H](O)[C@@H](O)[C@H](CO)O[C@H]1SC1CCCCC1)C1COC(c2cccc(F)c2)=N1 (single isomer, unassigned) | 28 | > 200
2 | CC(C)(C)C(=O)ON[C@@H](CCc1ccccc1)C(=O)N[C@H]1[C@H](O)[C@@H](O)[C@H](CO)O[C@H]1SC1CCCCC1 | > 200 | 145
3 | O=S(=O)(CCCCc1ccccc1)N[C@H]1[C@H](O)[C@@H](O)[C@H](CO)O[C@H]1SC1CCCCC1 (single isomer, unassigned) | 101 | 120
4 | O=C(N[C@H]1[C@H](O)[C@@H](O)[C@H](CO)O[C@H]1SC1CCCCC1)c1ccc(-c2ccc(Cl)cc2)o1 (single isomer, unassigned) | 7 | 33
5 | O=C(N[C@H]1[C@H](O)[C@@H](O)[C@H](CO)O[C@H]1SC1CCCCC1)C1CCOC(c2cccc(F)c2)=N1 (single isomer, unassigned) | 10 | > 200
6 | O=S(=O)(/C=C/CCc1ccccc1)N[C@H]1[C@H](O)[C@@H](O)[C@H](CO)O[C@H]1SC1CCCCC1 (single isomer, unassigned) | 105 | 90
